Experimental findings from patent publication US7323479B2, “Methods for treatment and management of brain cancer using 1-oxo-2-(2,6-dioxopiperidin-3-yl)-4-methylisoindoline” (Celgene Corporation, priority 2002, dated 2008) are described below.

Data set [1] can be described thus: Pharmacokinetics of Actimid in relapsed/refractory multiple myeloma patients. The data set is classed as in vivo, human. The settings on record: for AUC: AUC(0-τ); for Vd/F: Vz/f; for half-life: t½. The method, then:
4-(Amino)-2-(2,6-dioxo(3-piperidyl))-isoindoline-1,3-dione (Actimid™) was administered to patients with relapsed/refractory multiple myeloma. The study was conducted in compliance with Good Clinical Practices. Patients were at least 18 years old, had been diagnosed with multiple myeloma (with paraprotein in serum and/or urine), and were considered refractory to treatment after at least two cycles of treatment, or have relapsed after two cycles of treatment.
4-(Amino)-2-(2,6-dioxo(3-piperidyl))-isoindoline-1,3-dione is administered to patients at doses of 1, 2, 5, or 10 mg/day for up to four weeks; at each dose level, three patients are initially enrolled. Dosing occurs at approximately the same time each morning; all doses are administered in the fasted state (no eating for at least two hours prior to dosing and two hours after dosing). 4-(Amino)-2-(2,6-dioxo(3-piperidyl))-isoindoline-1,3-dione doses are administered in an ascending fashion such that patients in the first cohort receive the lowest dose of 4-(amino)-2-(2,6-dioxo(3-piperidyl))-isoindoline-1,3-dione (1 mg/day) and escalation to the next higher dose level occurs only following the establishment of safety and tolerability at the current dose. If one out of three patients at any dose level experience dose limiting toxicity (DLT), three additional patients are enrolled at that dose. If none of the three additional patients experience DLT, escalation to the next dose level occurs; dose escalations continue in a similar fashion until the MTD is established or the maximum daily dose (10 mg/day) is attained. However, if one of the three additional patients enrolled experiences DLT, the MTD has been reached. If two or more of the three additional patients enrolled experience DLT, the MTD is judged to have been exceeded and three additional patients are enrolled at the preceding dose level to confirm the MTD. Once the MTD has been identified, four additional patients are enrolled at that dose level so that a total of 10 patients is treated at the MTD.
Blood sampling for analysis of pharmacokinetic parameters is performed on Days 1 and 28 according to the following sampling schedule: pre-dose, 0.25, 0.5, 0.75, 1, 1.5, 2, 2.5, 3, 4, 6, 8, 10, 12, 18, and 24 hours post-dose. An additional blood sample is collected at each weekly visit for the determination of 4-(amino)-2-(2,6-dioxo(3-piperidyl))-isoindoline-1,3-dione levels. Total urine collections are also made with urine pooled according to the following time intervals post-dose: 0 to 4, 4 to 8, 8 to 12, and 12 to 24 hours. Safety assessments are made by monitoring adverse events, vital signs, ECGs, clinical laboratory evaluations (blood chemistry, hematology, lymphocyte phenotyping, and urinalysis), and physical examination at specific times during the study.

A further data set relates to TNF-α, IL-1β, and IL-6. In words: LPS-stimulated production of pro-inflammatory cytokines by PBMC. The data set is classed as cell-based.
Data set [2] is described as follows: Phase 1 studies of Revimid in refractory or relapsed multiple myeloma: pharmacokinetics. The class given is in vivo. The method, then: (§1) Patients were evaluated for adverse events at each visit and the severity of these events was graded according to the National Cancer Institute (NCI) Common Toxicity Criteria. Patients were discontinued if they experienced DLT (Grade 3 or greater non-hematological, or Grade 4 hematological toxicity).
Blood and urine samples were collected for analysis of pharmacokinetic parameters on Days 1 and 28. Blood samples were collected according to the following sampling schedule: pre-dose, 0.25, 0.5, 0.75, 1, 1.5, 2, 2.5, 3, 4, 6, 8, 10, 12, 18, and 24 hours post-dose. In addition, a blood sample was collected at each weekly clinic visit for 3-(4-amino-1-oxo-1,3-dihydro-isoindol-2-yl)-piperidine-2,6-dione determination. Total urine was collected and pooled according to the following time intervals post-dose: 0 to 4, 4 to 8, 8 to 12, and 12 to 24 hours. […] Bone marrow aspirations and/or tissue biopsy are also performed at Months 3, 6 and 12 if a patient's paraprotein serum concentration or 24-hour urine protein excretion declined to the next lower level, based on best response criteria.

The next data set concerns IL-2 and IFN-γ. In words: Augmentation of IL-2 and IFN-γ production following TCR activation of PBMC (IL-2) or T-cells (IFN-γ). The data set is classed as cell-based.
The test system of the next data set is metastatic melanoma. Put plainly: Treatment of patients with metastatic melanoma. The data set is classed as in vivo, human. How it is done:
The dose was then increased every seven days to 10 mg/day, 25 mg/day, and 50 mg/day, respectively, for a total of four weeks on therapy.

Data set [3] is described as follows: Phase 1 studies of Revimid in refractory or relapsed multiple myeloma: dose limiting toxicity. The class given is in vivo. How it is done:
as §1

Data set [4] can be described thus: Phase 1 study of Revimid in patients with solid tumors: dose limiting toxicity. The data set is classed as in vivo. The settings on record: initial group of 20 patients, 5 escalated to 50 mg/day over 4 weeks. How it is done:
Patients who, experienced clinical benefit were permitted to continue on treatment as Named Patients.
The study design dictates that at least 3 patients must be enrolled at a dose level and have completed 28 days of treatment prior to enrollment of patients at the next higher dose level. Patients in the first cohort began dosing at 5 mg/day of 3-(4-amino-1′-oxo-1,3-dihydro-isoindol-2-yl)-piperidine-2,6-dione. […]
If, at any given dose level in either study, one out of three patients experiences toxicity, three additional patients must be treated at that particular dose. If, however, two out of six patients experience DLT, the MTD is judged to have been exceeded. No further dose escalations are to occur and additional patients are to be enrolled at the previous dose level.

Data set [5] can be described thus: Cardiovascular and respiratory function in anesthetized dogs. The class given is in vivo, Beagle dogs. The source says: Two groups of Beagle dogs (2/sex/group) are used.
The next data set deals with IL-10. In words: LPS-stimulated production of anti-inflammatory cytokine IL-10 by PBMC. The class given is cell-based.
Where [6] appears, read: multiple myeloma patients, preliminary.

The AUC(0-inf) is total exposure, with the tail of the curve extrapolated. Read a high AUC(0-inf) as high exposure. What is called AUC is the area under the concentration-time curve, a measure of exposure. Read a high AUC as more exposure. As a reminder, the Cmax is the highest concentration seen after dosing. As usually defined, the Vd/F is the apparent distribution volume after extravascular dosing. In general, Tmax refers to the time at which the peak concentration occurs. The term half-life denotes the time needed for the level to fall by half in the phase considered. The low end stands for fast loss, the high end for slow loss.

For `Nc1cccc2c1C(=O)N(C1CCC(=O)NC1=O)C2=O` (stereo not drawn) [Actimid, 4-(Amino)-2-(2,6-dioxo(3-piperidyl))-isoindoline-1,3-dione], the “increase in AUC(0-τ) with 5-fold increase in dose” value in data set [1] (Day 1) is 3.6 fold; in data set [1] (Week 4) it was 2.3 fold. The “increase in Cmax with five-fold higher dose” value is given as 3.2 fold in [1] (Day 1) and 2.2 fold in [1] (Week 4). For the same molecule, in data set [1] (human, in vivo), the “decline of plasma concentrations after reaching Cmax” value is reported as “declined in a monophasic manner”. Further, the “increase in AUC(0-τ) and Cmax values with increasing dose” value in [1] (human, in vivo) is given as “almost a dose proportional increase”. The AUC(0-inf) in [1] (human, in vivo, 1 mg) is 153 ng·h/mL; in [1] (human, in vivo, 2 mg), 279 ng·h/mL; in [1] (human, in vivo, 5 mg), 593 ng·h/mL. For the same molecule, the AUC in data set [1] (human, in vivo, 1 mg) was found to be 134 ng·h/mL; in data set [1] (human, in vivo, 2 mg) it was 250 ng·h/mL; in data set [1] (human, in vivo, 5 mg), 521 ng·h/mL. In addition, the maximum concentration (Cmax) in data set [1] (human, in vivo, 1 mg) turned out to be 15 ng/mL; in data set [1] (human, in vivo, 2 mg), 24.4 ng/mL; in data set [1] (human, in vivo, 5 mg) it was 48.6 ng/mL. For the same molecule, the Vd/F in data set [1] (human, in vivo, 1 mg) turned out to be 69.5 L; in [1] (human, in vivo, 2 mg), 65.3 L; in data set [1] (human, in vivo, 5 mg), 87.2 L. Further, the time of peak concentration (Tmax) in [1] (human, in vivo, 1 mg, tmax) is 3.3 h; in data set [1] (human, in vivo, 2 mg, tmax) it was 2.7 h; in data set [1] (human, in vivo, 5 mg, tmax), 2.3 h; in [1] (human, in vivo, median Tmax), 2.5 to 2.8 h; in [1] (human, in vivo, po, tmax), 3.6 h. Further, the half-life was 7.3 h in data set [1] (human, in vivo, 1 mg); 6.3 h in [1] (human, in vivo, 2 mg); 6.5 h in data set [1] (human, in vivo, 5 mg); 6.2 h in [1] (human, in vivo, po).
With `Nc1cccc2c1CN(C1CCC(=O)NC1=O)C2=O` (stereo not drawn) [Revimid, 3-(4-amino-1-oxo-1,3-dihydro-isoindol-2-yl)-piperidine-2,6-dione], in the data set on TNF-α, IL-1β, and IL-6, the “effect on LPS-stimulated production of TNF-α, IL-1β, and IL-6” value was “dose-dependent inhibition”. In data set [2] (human, in vivo), the “half-live in patients, mean” value was 8 h and the “half-live in patients, ranging up to” value is recorded as “up to 17 hours”. Moreover, in [2] (in vivo), the “accumulation with multiple dosing” value is listed as “no evidence of accumulation” and the “shape of concentration profile” value is recorded as “double peaks were observed”. In [2] (setting [6]), the “clearance compared to healthy volunteers” value is listed as “lower”; the “exposure (Cmax and AUC) compared to healthy male volunteers” value is given as “slightly higher”. Besides, the “times more potent than thalidomide in augmenting the production of IL-2 and IFN-γ” value in the data set on IL-2 and IFN-γ is reported as 50-100 times. Besides, the “patients showing disease stabilization or a partial response” value in the data set with metastatic melanoma (first four weeks of treatment, 5 escalated to 50 mg/day) is given as “Five of the 13”. In the data set with metastatic melanoma (metastatic melanoma patients), the duration of response entry is “approximately six months”; the “tumor response seen in cutaneous and subcutaneous lesions” value is “five”; the “tumor response seen in liver” value was “one”; the “tumor response seen in lymph nodes” value is “two”. Further, the “dose limiting toxicity (DLT)” value in [3] (first cohort of 3 patients, 5 mg/day, 28 days) is reported as “without any dose limiting toxicity”. Besides, in [3] (second cohort of 3 patients, 10 mg/day), the tolerability entry is given as “tolerated treatment well”. Also, the DLTs reported result in [4] was “No DLTs”. The “cardiovascular and respiratory changes compared to the vehicle control group” value in data set [5] (anesthetized dogs, 2, 10, and 20 mg/kg, infusion through the jugular vein, all doses) is “minimal”. Moreover, the “deviations in femoral blood flow, respiratory parameters, and Qtc interval” value in data set [5] (common to both the control and treated groups) was “not considered treatment-related”. Moreover, the “duration of the arterial blood pressure effect” value in [5] (low dose) is “approximately 15 minutes”. Further, the “arterial blood pressure after small increase” value in data set [5] (low dose, increase from 94 mmHg, not seen at higher doses) was determined as 101 mmHg. The “effect on production of IL-10” value with IL-10 is “increased production”.
